In article PMC6353875, “The EZH2 SANT1 domain is a histone reader providing sensitivity to the modification state of the H4 tail” (Scientific Reports, 2019):
“Also recorded” adds a separate entry of the source.

Experiments:
SRM-SANT1 = assay: Biotinylated histone peptide pulldown; assay type: binding, human; details: for effect of modification on SRM-SANT1 binding (pulldown): 1 μg SRM-SANT1 with 1 μg Biotin-tagged H4 peptide, overnight 4 °C, 150 mM NaCl, 50 mM Tris (pH 6.5), 3 mM DTT, streptavidin resin, coomassie, ImageJ, triplicate, vs corresponding unmodified peptide, p-value < 0.05; for effect of H4 modification on binding of SANT1 to H4 (abstract summary): summary statement in abstract
Text: (§1) The complete human EZH2 cDNA was obtained from OpenBiosystems (GE Healthcare, Accession #:BC010858). EZH2 SANT1 (residues 159–251) and SRM-SANT1 (residues 141–251) were subcloned into a pDEST15 (N-terminal GST-tag) expression vector using the Gateway Recombination cloning method (Invitrogen, ThermoScientific) with a PreScission Protease cleavage site engineered between the GST-tag and the N-terminus of EZH2 SRM-SANT1. Mutants were generated in the 141–251 construct using site-directed mutagenesis (Q5 mutagenesis kit, New England Biolabs).
(§2) For purification, cell pellets were thawed on ice and lysed by emulsiflex in a lysis buffer containing 150 mM NaCl, 50 mM Tris (pH 6.5), 3 mM DTT, 0.1% Triton X-100 and DNaseI. Lysate was cleared at 18,000 g for 1 hour at 4 °C. The soluble supernatant was incubated with glutathione agarose resin (ThermoFisher Scientific) and washed extensively with a buffer containing 900 mM NaCl, 50 mM Tris (pH 6.5) and 3 mM DTT. The GST-tag was cleaved by incubation with PreScission Protease overnight and SRM-SANT1 was further purified by FPLC using […] over a Source15S column and size exclusion chromatography over a superdex 75 column. The final buffer contained 150 mM NaCl, 50 mM Tris (pH 6.5), 3 mM DTT, with or without 5 mM EDTA.
Biotinylated unmodified histone H4 (1–23, SKU:12-0029), unmodified H4 (11–27, SKU:12-0035), H4K16ac (1–23, SKU:12-0033), H4K20ac (1–24, SKU:12-0052) and H4K20me3 (11–27, SKU:12-0038) peptides were obtained from EpiCypher. 1 μg of purified SRM-SANT1 was incubated with 1 μg of Biotin-tagged H4 peptides unmodified or containing single modifications. Reactions were incubated overnight rocking end over end at 4 °C in a binding buffer containing 150 mM NaCl, 50 mM Tris (pH 6.5), 3 mM DTT. Streptavidin sepharose resin (25 μL of 50% slurry, GE Life Sciences) was added to each reaction and rocked end over end at 4 °C for two hours. The reactions were then spun at 2500 × g, supernatant decanted and beads washed with 500 μL of the binding buffer four times. After the final wash, beads were resuspended in 5x SDS loading dye, ran on a 4–20% gradient gel and visualized using coomassie staining. Gels were imaged using an ImageQuant LAS 4000 imager. Quantification of triplicate pull down experiments was performed using ImageJ[59].

[1] = biological target: T1, EZH2 SRM-SANT1 (residues 141–251) (Homo sapiens, UniProt Q15910); assay: NMR titration (1H-15N HSQC) of SRM-SANT1 with histone peptides; assay type: binding; details: for chemical shift perturbations (CSPs) upon peptide addition: 1H-15N HSQC overlay, 25 °C, 0.05–0.10 mM 15N-SRM-SANT1, increasing concentrations of peptide; for effect of H4K16 acetylation on interaction/binding (NMR): 1H-15N HSQC titration of SRM-SANT1 with H4K16ac(1–21)
T1 construct: All additional studies were performed with the SRM-SANT1 construct containing residues 141–251; GST (N, cleaved yes); made in house; host or cells: E. coli Rosetta2 (DE3) pLysS
T1 sequence (Q15910 141-251): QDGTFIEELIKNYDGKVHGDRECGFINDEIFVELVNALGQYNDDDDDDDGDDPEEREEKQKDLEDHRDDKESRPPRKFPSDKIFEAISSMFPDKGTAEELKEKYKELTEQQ
Text: as §1, §2
Biotinylated histone H4K16ac (1–21, AS-64847-1) was obtained from Anaspec. All histone peptides were dissolved in H2O at a concentration of 20 mM, and the pH adjusted to ~7.0. DNA oligos were obtained from IDT. The DNA was annealed by mixing equimolar amounts of single stranded oligos. DNA was heated to 95 °C for 10 minutes before allowing to cool overnight. The annealed DNA was further purified by size exclusion chromatography over a superdex 75 column in a buffer containing 150 mM NaCl, 50 mM Tris (pH 6.5), 3 mM DTT, with 5 mM EDTA. Titrations were performed by collecting ^15N-HSQC spectra on 0.05–0.10 mM ^15N-EZH2 SRM-SANT1 while titrating in increasing concentrations of the respective ligands. Titration experiments were performed at 25 °C on a Bruker Avance II 800 MHz NMR spectrometer equipped with a 5 mm triple resonance cryoprobe. Data was processed and analyzed using NMRPipe and CcpNmr[53],[54].
Kd values were determined for all individual residues with significant Δδ in each individual titration.

Substance	effect of H4 modification on binding of SANT1 to H4 (abstract summary) (SRM-SANT1)	effect of modification on SRM-SANT1 binding (pulldown) (SRM-SANT1)	chemical shift perturbations (CSPs) upon peptide addition [1]	further results
H4(11–21): unmodified histone H4 (11–21), custom synthesized by GenScript			confirms binding to the basic patch of H4; also recorded: very similar CSPs as was observed for H4(1–21)	fold weaker binding (Kd) than H4 tail (1–21) ([1]; ratio of Kd to that of H4 (1–21)): ~ 2 x
H4K16ac(1–21): Biotinylated histone H4K16ac (1–21, AS-64847-1), obtained from Anaspec; NMR titration				effect of H4K16 acetylation on interaction/binding (NMR) [1]: abrogates binding; effect of H4K16 acetylation on interaction/binding (NMR) ([1]; listed as H4K16ac peptide): substantially abrogates interaction with the H4 tail
H4K16ac: H4K16ac (1–23, SKU:12-0033), biotinylated peptide from EpiCypher; pulldown	abrogate binding of SANT1 to H4	significant decreases in SRM-SANT1 binding		
H4(1–10): unmodified histone H4 (1–10), custom synthesized by GenScript (SGRGKGGKGL)			very minor CSPs throughout SANT1, indicative of non-specific interactions	

The next lines start with results.

effect of H4 modification on binding of SANT1 to H4 (abstract summary) (SRM-SANT1)	Substance	effect of modification on SRM-SANT1 binding (pulldown) (SRM-SANT1)	chemical shift perturbations (CSPs) upon peptide addition [1]	further results
abrogate binding of SANT1 to H4	H4K20me3: H4K20me3 (11–27, SKU:12-0038), biotinylated peptide from EpiCypher	significant decreases in SRM-SANT1 binding		
abrogate binding of SANT1 to H4	H4K20ac: H4K20ac (1–24, SKU:12-0052), biotinylated peptide from EpiCypher	decreased binding, though not statistically significantly		
